US9115143B2, “Substituted indole derivatives as gamma secretase modulators” (Janssen Pharmaceuticals, Inc., priority 2011, dated 2015)

Tests used:
Aβ42 = experiment: Screening for γ-secretase-modulating activity: Aβ42 in supernatant of SKNBE2 cells carrying hAPP 695 wild type (Alphalisa); assay type: cell-based, human; conditions: overnight incubation, Alphalisa on supernatant
Experimental: (§1) Pharmacology A) Screening of the Compounds of the Invention for γ-Secretase-Modulating Activity
(§2) Screening was carried out using SKNBE2 human neuroblastoma cells carrying the hAPP 695—wild type, grown in Dulbecco's Modified Eagle's Medium/Nutrient mixture F-12 (DMEM/NUT-mix F-12) (HAM) provided by Invitrogen (cat no. 10371-029) containing 5% Serum/Fe supplemented with 1% non-essential amino acids, 1-glutamine 2 mM, Hepes 15 mM, penicillin 50 U/mL (units/mL) en streptomycin 50 μg/mL. Cells were grown to near confluency.
(§3) The screening was performed using a modification of the assay as described in Citron et al (1997) Nature Medicine 3: 67. Briefly, cells were plated in a 384-well plate at 10^4 cells/well in Ultraculture (Lonza, BE12-725F) supplemented with 1% glutamine (Invitrogen, 25030-024), 1% non-essential amino acid (NEAA), penicillin 50 U/mL en streptomycin 50 μg/mL in the presence of test compound at different test concentrations. The cell/compound mixture was incubated overnight at 37° C., 5% CO2. The next day the media were assayed by two sandwich immuno-assays, for Aβ42 and Aβtotal.
(§4) Aβtotal and Aβ42 concentrations were quantified in the cell supernatant using the Aphalisa technology (Perkin Elmer). Alphalisa is a sandwich assay using biotinylated antibody attached to streptavidin coated donorbeads and antibody conjugated to acceptor beads. In the presence of antigen, the beads come into close proximity. The excitation of the donor beads provokes the release of singlet oxygen molecules that trigger a cascade of energy transfer in the acceptor beads, resulting in light emission. To quantify the amount of Aβ42 in the cell supernatant, monoclonal antibody specific to the C-terminus of Aβ42 (JRF/cAβ42/26) was coupled to the receptor beads and biotinylated antibody specific to the N-terminus of Aβ (JRF/AβN/25) was used to react with the donor beads. To quantify the amount of Aβ total in the cell supernatant, monoclonal antibody specific to the N-terminus of Aβ (JRF/AβN/25) was coupled to the receptor beads and biotinylated antibody specific to the mid region of Aβ (biotinylated 4G8) was used to react with the donor beads.
(§5) To obtain the values reported in Table 3, the data are calculated as percentage of the maximum amount of amyloid Beta 42 measured in the absence of the test compound. The sigmoidal dose response curves were analyzed using nonlinear regression analysis with percentage of the control plotted against the log concentration of the compound. A 4-parameter equation was used to determine the IC50.

Aβtotal = experiment: Screening for γ-secretase-modulating activity: Aβtotal in supernatant of SKNBE2 cells carrying hAPP 695 wild type (Alphalisa); assay type: cell-based, human; conditions: overnight incubation, Alphalisa on supernatant
Experimental: as §1, §2, §3, §4, §5

[1] = SKNBE2 human neuroblastoma cells carrying hAPP 695 wild type
[2] = Homo sapiens, SKNBE2, SKNBE2 human neuroblastoma cells carrying hAPP 695 wild type

| Compound | IC50 (Aβ42; [1]) [nM] | IC50 (Aβtotal; [1]) [nM] | IC50 (Aβ42; [2]) [nM] | IC50 (Aβtotal; [2]) [nM] |
| --- | --- | --- | --- | --- |
| Cc1cn(-c2ccc3[nH]c(-c4nc5n(n4)CCCC5c4ccc(F)cc4C)cc3n2)cn1 (stereo not drawn) [Compound 66, 8-(4-fluoro-2-methylphenyl)-5,6,7,8-tetrahydro-2-[5-(4-methyl-1H-imidazol-1-yl)-1H-pyrrolo[3,2-b]pyridin-2-yl]-[1,2,4]triazolo[1,5-a]pyridine] | 447 | > 10000 |  |  |
| Cc1cc(F)ccc1C1CCCn2nc(-c3cc4nc(-c5cnn(C)c5)ccc4[nH]3)nc21 (stereo not drawn) [Compound 70, 8-(4-fluoro-2-methylphenyl)-5,6,7,8-tetrahydro-2-[5-(1-methyl-1H-pyrazol-4-yl)-1H-pyrrolo[3,2-b]pyridin-2-yl]-[1,2,4]triazolo[1,5-a]pyridine] | 1000 | > 10000 |  |  |
| Cc1cc(F)ccc1C1CCCn2cc(-c3cc4nc(C#N)ccc4[nH]3)nc21 (stereo not drawn) [Compound 75, 2-[8-(4-fluoro-2-methylphenyl)-5,6,7,8-tetrahydroimidazo[1,2-a]pyridin-2-yl]-1H-pyrrolo[3,2-b]pyridine-5-carbonitrile] |  |  | 174 | > 10000 |
| Cc1cc(F)ccc1C1CCCn2cc(-c3cc4nc(-c5cnn(C)c5)ccc4[nH]3)nc21 (stereo not drawn) [Compound 85, 2-[8-(4-fluoro-2-methylphenyl)-5,6,7,8-tetrahydroimidazo[1,2-a]pyridin-2-yl]-5-(1-methyl-1H-pyrazol-4-yl)-1H-pyrrolo[3,2-b]pyridine] | 9120 |  |  | > 10000 |
| Cc1cc(F)ccc1C1CCCn2cc(-c3cc4nc(-c5cnn(C)c5)ccc4[nH]3)nc21 (stereo not drawn) [Compound 86, 2-[8-(4-fluoro-2-methylphenyl)-5,6,7,8-tetrahydroimidazo[1,2-a]pyridin-2-yl]-5-(1-methyl-1H-pyrazol-4-yl)-1H-pyrrolo[3,2-b]pyridine] | 112 | > 10000 |  |  |

Results, then the molecule that gave them:

| IC50 (Aβ42; [1]) [nM] | IC50 (Aβtotal; [1]) [nM] | IC50 (Aβ42; [2]) [nM] | IC50 (Aβtotal; [2]) [nM] | Compound |
| --- | --- | --- | --- | --- |
|  |  | 316 | > 10000 | Cc1cc(F)ccc1C1CCCn2nc(-c3cc4cc(C#N)ncc4[nH]3)nc21 (stereo not drawn) [Compound 68, 2-[8-(4-fluoro-2-methylphenyl)-5,6,7,8-tetrahydro[1,2,4]triazolo[1,5-a]pyridin-2-yl]-1H-pyrrolo[2,3-c]pyridine-5-carbonitrile] |
| 56 |  |  | > 10000 | COCc1ccccc1C1CCCn2nc(-c3cc4c(OC)c(C#N)ccc4[nH]3)nc21 (stereo not drawn) [Compound 89, 4-methoxy-2-[5,6,7,8-tetrahydro-8-[2-(methoxymethyl)phenyl][1,2,4]triazolo[1,5-a]pyridin-2-yl]-1H-indole-5-carbonitrile] |
| 40 | > 10000 |  |  | COCc1ccccc1C1CCCn2nc(-c3cc4c(OC)c(C#N)ccc4[nH]3)nc21 (stereo not drawn) [Compound 90, 4-methoxy-2-[5,6,7,8-tetrahydro-8-[2-(methoxymethyl)phenyl][1,2,4]triazolo[1,5-a]pyridin-2-yl]-1H-indole-5-carbonitrile] |
| 1200 | > 10000 |  |  | COCc1ccccc1C1CCCn2nc(-c3cc4c(OC)c(C#N)ccc4[nH]3)nc21 (stereo not drawn) [Compound 91, 4-methoxy-2-[5,6,7,8-tetrahydro-8-[2-(methoxymethyl)phenyl][1,2,4]triazolo[1,5-a]pyridin-2-yl]-1H-indole-5-carbonitrile] |
|  |  | 1480 | > 10000 | Cc1cn(-c2ccc3cc(-c4nc5n(n4)CCCC5c4ccc(F)cc4C)[nH]c3c2)cn1 (stereo not drawn) [Compound 93] |
|  |  | 170 | 1820 | Cc1cn(-c2ccc3[nH]c(-c4nc5n(n4)CCOC5c4ccc(F)cc4C)cc3n2)cn1 (stereo not drawn) [Compound 94, 8-(4-fluoro-2-methylphenyl)-5,6-dihydro-2-[5-(4-methyl-1H-imidazol-1-yl)-1H-pyrrolo[3,2-b]pyridin-2-yl]-8H-[1,2,4]triazolo[5,1-c][1,4]oxazine] |
|  |  | 355 | > 10000 | CCc1cc(F)ccc1C1OCCn2nc(-c3cc4cc(C#N)ccc4[nH]3)nc21 (stereo not drawn) [Compound 95, 2-[8-(2-ethyl-4-fluorophenyl)-5,6-dihydro-8H-[1,2,4]triazolo[5,1-c][1,4]oxazin-2-yl]-1H-indole-5-carbonitrile] |
